In series [1] the test system is HFHSD-fed male C57Bl6j mice. Description: Metabolic efficacy of different glucagon/T3 conjugate versions in HFHSD-fed mice. It counts as in vivo, mouse. The following applies: 100 nmol kg-1 daily, 14 days. From the text:
For studies on lipid handling in wildtype mice (Western mice), male C57Bl/6j mice (Jackson Laboratories) were fed a atherogenic Western diet (Research Diets D12079B), which is a high-cholesterol diet (0.21% gm %) with 41% kcal from fat, 43% kcal from carbohydrates, and 17% kcal from protein. For studies on energy metabolism in obese mice (DIO mice), male C57Bl/6j mice (Jackson Laboratories) were fed a diabetogenic diet (Research Diets D12331), which is a high-sucrose diet with 58% kcal from fat 25.5% kcal from carbohydrates, and 16.4% kcal from protein. Both dietary challenges began at 8 weeks of age. HFHSD and HFHCD mice were single- or group-housed on a 12:12-h light-dark cycle at 22° C. with free access to food and water. Mice were maintained under these conditions for a minimum of 16 weeks before initiation of pharmacological studies and were between the ages of 6 months to 12 months old. All injections and tests were performed during the light cycle. Compounds were administered in a vehicle of 1% Tween-80 and 1% DMSO and were given by daily subcutaneous injections at the indicated doses at a volume of 5 μl per g body weight. Mice were randomized and evenly distributed to test groups according to body weight and body composition. If ex vivo molecular biology/histology/biochemistry analyses were performed, the entire group of mice for each treatment was analyzed and scored in a blinded fashion.
Compounds were administered by repeated subcutaneous injections in the middle of the light phase at the indicated doses with the indicated durations. Co-administration of compounds was administered by single formulated injections. Body weights and food intake were measured every day or every other day after the first injection. All studies with wild-type mice were performed with a group size of n=8 or greater using mice on a C57B16j background.
Blood was collected at the indicated times from tail veins or after euthanasia using EDTA-coated microvette tubes (Sarstedt), immediately chilled on ice, centrifuged at 5,000 g and 4° C., and plasma was stored at −80° C. For […] (FPLC) of cholesterol distribution in different lipoprotein fractions, fresh plasma from each treatment group was pooled (n=6-8) and ran over two Superose 6 HR columns in tandem. Cholesterol levels in the collected fractions were determined by colorimetric assay. Plasma insulin and T3 were quantified by an ELISA assay (Ultrasenstive Mouse Insulin ELISA and Rodent T3 ELISA; Alpco). Plasma FGF21 was quantified by an ELISA assay (Mouse FGF21 ELISA; Millipore). Plasma cholesterol, extracted hepatic cholesterol, triglycerides, ALT, and AST were measured using enzymatic assay kits (Thermo Fisher). Plasma creatinine and blood urea nitrogen were measured using enzymatic assay kits (Abcam). Plasma free fatty acids were measured using enzymatic assay kits (Wako). All assays were performed according to the manufacturers' instructions.

The format of series [2] is in vitro ADME, human. The protocol: Each compound was incubated with phosphate buffered saline (PBS, pH=7.4) containing 60% mouse plasma at 37° C. for the duration of the study. At the time points of 6 h, 24 h and 72 h, aliquots of the incubated solutions were withdrawn and diluted with acetonitrile to precipitate the plasma proteins, which were subsequently removed by microcentrifugation at 13,000 rpm for 5 mins. The supernatant was collected and diluted for the analytical reversed-phase HPLC using a linear gradient of buffer B over buffer A (A: 10% aqueous acetonitrile, 0.1% TFA; B: 90% aqueous acetonitrile, 0.1% TFA) on a Zorbax C8 column (4.6×50 mm). RNA-Seq Total RNAs were extracted from frozen liver samples of 4 independent mice per group (vehicle, glucagon only, T3 only, co-administration of glucagon and T3 and glucagon/T3) using TriPure RNA reagent (Sigma). Poly-A isolation, library generation and amplification were performed according to the protocol of the mRNASeq Library Prep Kit (Lexogen). […] Mapping of color-coded reads on the mouse genome (mm10 assembly) was performed using the Lifescope software (Life Technologies). Reads for annotated (Ensembl) genes were counted using HtSeq. […] The synergy score (SS) was calculated as the relative fold change (FC) of (glucagon/T3) compared to the maximum FC of T3 and glucagon alone: SS=FC (glucagon/T3)/max (T3, glucagon). […]

In series [3] the test system is DIO mice. Description: Cardiac function and histology in DIO mice (echocardiography). The class given is in vivo, mouse. The following applies: mouse, in vivo. Here is the method:
After chronic treatment, HFHCD-fed or HFHSD-fed C57B16/j male mice (age) were sacrificed with CO2, body weight as well as heart weights and tibia length was taken during necropsy. Livers and whole hearts were embedded in paraffin using a vacuum infiltration processor TissueTEK VIP (Sakura). 3 μm thick slides were cut using a HMS35 rotatory microtome (Zeiss) and H & E staining was performed. For H & E staining, rehydration was done in a decreasing ethanol series, rinsing with tapwater, 2 min Mayers acid Hemalum, bluing in tapwater followed by lmin EosinY (both BioOptica). Dehydration was performed in increasing ethanol series, mounting with Pertex® (Medite GmbH) and coverslips (CarlRoth Chemicals). The slides were evaluated independently using a brightfield microscope (Axioplan, Zeiss). Photos were taken using the Hamamatsu-Nanozoomer HT2.0 in 1.25×, 5×. 20× and 40× magnification. The hepatic steatosis score is defined as the unweighted sum of the three individual scores for steatosis, lobular inflammation and ballooning degeneration. Steatosis is graded by the presence of fat vacuoles in liver cells according to the percentage of affected tissue (0: <5%; 1: 5-33%; 2: 33-66%; 3: >66%). Lobular inflammation is scored by overall assessment of inflammatory foci per 200× field (0: no foci; 1: <2 foci; 2: 2-4 foci; 3: >4 foci). The individual score for ballooning degeneration ranges from 0 (none), 1 (few cells) to 2 (many cells). Total scores range from 0 to 8 with scores <2 considered non-steatosis, 3 considered as borderline steatosis, 4-5 considered onset of steatosis, and >6 considered steatosis. Different to liver and heart, inguinal fat pad samples were embedded in paraffin using Leica embedding machine (EG1150 H) and cut in 5 μm sections using Leica Microtome (RM2255) to perform H&E staining. Samples were stained with hematoxyline for 4 minutes and eosinY for 2 minutes and fixed with Roti®-Histokitt (Carl Roth) before analysing them independently using Microscope Scope A.1 (Zeiss).
For transthoracic echocardiography, a Vevo2100 Imaging System (VisualSonics Inc., Toronto Canada) with a 30 MHz probe was used. All echocardiograms were performed on conscious animals to prevent anesthesia-related impairment of cardiac function as reported previously. Briefly, echocardiograms were obtained in parasternal long and short axis views. For accurate linear measurements of LV internal dimensions (LVID) and […] (LVPW) or septal (IVS) wall thicknesses, M-mode images of the heart in parasternal short-axis view at the level of the papillary muscle were acquired. Qualitative and quantitative measurements were made offline using analytical software (VisualSonics Inc.). Fractional shortening (FS) was calculated as FS %=[(LVIDd−LVIDs)/LVIDd]×100. Ejection fraction (EF) was calculated as EF %=100*((LVvolD−LVvolS)/LVvolD) with LVvol=((7.0/(2.4+LVID)*LVID^3). The corrected LV mass (LV MassCor) was calculated as LV MassCor=0.8(1.053*((LVIDd+LVPWd+IVSd)^3−LVIDd^3)). Heart rate and respiration rate were determined from M-mode tracings, using 3 consecutive intervals.
Gene expression profiling in the liver, iWAT, eWAT, BAT, and heart were performed following treatment of mice according to the treatment paradigms explained in the figure legends for each specific analsysis. For tissue collection, mice were fasted for 4 h and treated with compounds 2 h prior to tissue collection. Gene expression was profiled with quantitative real-time RT-PCR using either TaqMan single probes or with specifically-designed TaqMan low-density array cards. The relative expression of the selected genes was normalized to the reference gene hypoxanthine-guanine phosphoribosyltransferase (Hprt).

*1 amine or outer side, *2 acyl side, *3 side chain or, on linkers, in order; H or OH if unused. Where a SMILES comes first, the peptide text is derived from it. Where no end group is shown, it is not given here. Side-chain parts run from the residue outwards. [ ]: non-standard residue; d: D form. Thyronine(3,5,3'-I3) = N[C@@H](Cc1cc(I)c(Oc2ccc(O)c(I)c2)c(I)c1)C(=O)O; γGlu = O=C(O)[C@H](CCC(=O)[*:2])N[*:1]

For “glucagon/iT3: inverted attachment: amine of T3 covalently linked to the glucagon analog through a succinate spacer at Lys40 (H[dS]QGTFTSDYSKYLDSRRAQDFVQWLMNGGPSSGAPPPSK; not fully specified (residue 40))”, in series [1], the body weight lowering result is on record as “failed to lower body weight”, the cholesterol lowering effect entry was “not evident” and the lipid lowering entry is given as “did not lower lipids”.
`CSCC[C@H](NC(=O)[C@H](CC(C)C)NC(=O)[C@H](Cc1c[nH]c2ccccc12)NC(=O)[C@H](CCC(N)=O)NC(=O)[C@@H](NC(=O)[C@H](Cc1ccccc1)NC(=O)[C@H](CC(=O)O)NC(=O)[C@H](CCC(N)=O)NC(=O)[C@H](C)NC(=O)[C@H](CCCNC(=N)N)NC(=O)[C@H](CCCNC(=N)N)NC(=O)[C@H](CO)NC(=O)[C@H](CC(=O)O)NC(=O)[C@H](CC(C)C)NC(=O)[C@H](Cc1ccc(O)cc1)NC(=O)[C@H](CCCCN)NC(=O)[C@H](CO)NC(=O)[C@H](Cc1ccc(O)cc1)NC(=O)[C@H](CC(=O)O)NC(=O)[C@H](CO)NC(=O)[C@@H](NC(=O)[C@H](Cc1ccccc1)NC(=O)[C@@H](NC(=O)CNC(=O)[C@H](CCC(N)=O)NC(=O)[C@@H](CO)NC(=O)[C@@H](N)Cc1c[nH]cn1)[C@@H](C)O)[C@@H](C)O)C(C)C)C(=O)N[C@@H](CC(N)=O)C(=O)NCC(=O)NCC(=O)N1CCC[C@H]1C(=O)N[C@@H](CO)C(=O)N[C@@H](CO)C(=O)NCC(=O)N[C@@H](C)C(=O)N1CCC[C@H]1C(=O)N1CCC[C@H]1C(=O)N1CCC[C@H]1C(=O)N[C@@H](CO)C(=O)N[C@@H](CCCCNC(=O)CC[C@H](NC(=O)[C@@H](N)Cc1cc(I)c(Oc2ccc(O)c(I)c2)c(I)c1)C(=O)O)C(N)=O` [glucagon/T3] (H-H[dS]QGTFTSDYSKYLDSRRAQDFVQWLMNGGPSSGAPPPSK([γGlu-Thyronine(3,5,3'-I3)])-NH2; N-terminus assumed): the degradation in plasma result in series [2] is recorded as “remains intact with nearly no detectable degradation”. Also, in series [3], the “heart histology: thyrotoxic cardiomyopathy” value was “none of these manifestations of thyrotoxicity or thyroid hormone induced cardiomyopathy were detectable”; the “whole heart expression of T3-sensitive genes (Dio2, Ucp2)” value was “did not appear to be regulated”; the “whole heart expression of hypertrophic gene markers (Nppa, Nppb)” value is reported as “did not appear to be regulated”.
As for “glucagon/rT3: reverse T3 (rT3) coupled to the glucagon analog with the same linker chemistry as glucagon/T3 (H[dS]QGTFTSDYSKYLDSRRAQDFVQWLMNGGPSSGAPPPSK; not fully specified (residue 40); also: reverse T3 (rT3) coupled with same linker chemistry as glucagon/T3)”, in series [1], the body weight lowering entry is reported as “failed to lower body weight”, the cholesterol lowering effect entry is listed as “not evident” and the lipid lowering result is given as “did not lower lipids”.
